Test results reported in a melting point compilation (Tetko et al.; mined from patent text by program, amines drawn as free bases though some values may be those of a salt).

Structure (SMILES) | melting point [°C]
O=S(=O)(Cl)c1ccc(SSc2ccc(S(=O)(=O)Cl)cc2)cc1 | 139
CCCCc1nc(CCc2ccccc2)nn1Cc1ccc(-c2ccccc2-n2cnnn2)cc1 | 156 to 157
O=C(COc1ccc(Cl)cc1)c1ccccc1 | 81 to 86
Cn1cc(-c2nnn[nH]2)c(=O)c2ccccc21 | 306
N#CC(C#N)=CCOCCc1ccccc1 | 135 to 136
OCc1ccc2c(c1)C=C(n1ccnc1)CC2 | 88 to 91
CCn1ncnc1COc1nc2c(cc1C(C)(C)C)nnn2-c1ccccc1F | 117 to 120
O=C(O)CCOc1cccc(CN2CCCCC2)c1 | 178 to 180
O=C(O)CN1C(=O)[C@@H](NC(CCc2ccccc2)C(=O)O)CSC1c1ccccc1 (stereo partly drawn) | 132 to 138
O=Cc1cnc(Br)cn1 | 56 to 58
CCCCn1c(=O)c(NC(=O)Nc2c(C(C)C)cc(N(C)Cc3cccnc3)cc2C(C)C)c(-c2cccc(OC)c2)c2cccnc21 | 155 to 157
COc1ccc(/C=C(/C#N)c2cc(OC)c(OC)c(OC)c2)cc1N | 144 to 145
O=C1/C(=C(\NC2CC2)c2ccccc2)Sc2ccccc21 | 131 to 132
Cc1cc2cc(/C(=C\CO)c3ccc(I)cc3)ccc2o1 | 103 to 113
[N-]=[N+]=Nc1nc(N)nc2nc[nH]c12 | > 260
Cc1ccc2c(c1)C(=O)N(CC(=O)N1c3ccccc3N(Cc3ccccc3)C(=O)[C@H]3CCC[C@H]31)C2=O (relative stereo) | 237 to 238
Cc1cccc(C)c1N(CC(C)O)S(C)(=O)=O (stereo not drawn) | 81 to 84
CCCCOC(=O)C(C)Oc1ccc(COc2ccc(Cl)cc2)cc1 (stereo not drawn) | 66
CC(=O)Oc1cc2c(c3ccccc13)N(C(=O)OC(C)OC(C)=O)c1ccccc1S2 (stereo not drawn) | 76 to 78
O=c1[nH]c2c(c3ccccc13)c1cc(Cl)ccc1n2CC1CC1 | > 300

Structure (SMILES) | melting point [°C]
CCCCCCCNC(=O)Nc1ccccc1CCc1cc(C(C)C)c(O)c(C(C)C)c1 | 150 to 151
C[C@@H](N1CCN(S(C)(=O)=O)CC1)[C@](O)(Cn1cncn1)c1ccc(F)cc1F | 83 to 85
Cc1cc(O)c(S(=O)Cc2ccccc2F)c(=O)o1 (stereo not drawn) | 115 to 116
CC(C)(C)OC(=O)NN(Cc1ccc(-c2cnccn2)cc1)C[C@H](O)[C@@H](N)Cc1ccccc1 | 146 to 148
C#Cc1cnc(OCCOc2ncnc(NS(=O)(=O)c3ccc(C(C)(C)C)cc3)c2-c2ccc(C)cc2)nc1 | 207 to 210
CCCCC(=O)OCC(=O)C1C(C)CC2C3CC(Cl)C4=CC(=O)C=CC4(C)C3(Cl)C(O)CC21C (stereo not drawn) | 218
CN(Cc1cccc2c1CN(C1CCC(=O)NC1=O)C2=O)C(=O)CCNC(=O)OC(C)(C)C (stereo not drawn) | 222 to 224
CC1(C)C(=O)Nc2cc3[nH]c(-c4cnsn4)nc3cc21 | > 300
OC(C(=Cc1cccnc1)c1ccc(F)cc1)c1ccccc1Cl (stereo not drawn) | 82 to 83
Cc1cc(Br)c2[nH]c(=O)n(CCCN3CC=C(c4ccc(Cl)cc4)CC3)c(=O)c2c1 | 212 to 214
O=C(O)c1sc2ccc3c(c2c1Cl)O[C@@H](CO)CO3 | 236 to 237
CCCCCN1C(=O)C(CCc2nnn[nH]2)(NC(=O)c2ccc(Cl)c(Cl)c2)c2ccccc21 (stereo not drawn) | 142
Cc1cnc(-n2cc(C(F)(F)F)cn2)nc1Oc1cccc(C(F)(F)F)c1 | 103 to 105
O=C(c1nc(Cl)c(Cl)[nH]1)N1CCOCC1 | 215
CC1(C)[C@H]2CC[C@@H](CC(=O)O)[C@@H]1C2 | 50 to 53
COC(=O)N[C@@H](Cc1ccccc1)C(=O)CCl | 121 to 122
N#Cc1ccc(N(c2ccc(N)cc2)n2ccnc2)cc1 | 147
CN(C)C1(c2ccccc2)CCC(c2cccs2)(c2[nH]c3ccccc3c2CCc2ccncc2)CC1 (stereo not drawn) | 54 to 60
COC(=O)c1ccc2cc(NC(=O)OC(C)(C)C)ccc2c1 | 178 to 180

Other lines, results leading:

melting point [°C] | Structure (SMILES)
54 to 57 | CN1C(=O)C(c2ccc(OC(F)F)cc2)(c2cccc(CCCC(F)F)c2)N=C1N (stereo not drawn)
110 to 114 | Cc1ccc(S(=O)(=O)OCC2CC(=O)N(Cc3ccccc3)C2c2c(Cl)cccc2Cl)cc1 (stereo not drawn)
87 to 88 | O=C(C=Cc1ccc2c(c1)OCO2)c1cccc(OCCCCCBr)c1
186 to 187 | COc1ccc(-c2ccc(-n3nnnc3C(F)(F)F)cc2)cc1C=O
177 to 180 | CC(=O)Oc1c(C(C)(C)C)cc(C=[N+]([O-])CC(C)C)cc1C(C)(C)C
78 to 89 | CCN(CC)C(=O)c1cc(OC)cc(Oc2cccc(C(F)(F)F)c2)n1
102 to 103 | CC(C)N(CCC(CCN(C(C)C)C(C)C)(C(N)=O)c1ccccc1)C(C)C
79 to 80 | CCC(CC)(CO)CCS(N)(=O)=O
95 | CN(C)CCCOc1ccc(-c2nnc(-c3ccc(Oc4ccccc4)cc3)o2)cc1
184 to 186 | CN(C)N=Nc1cc([N+](=O)[O-])sc1C(=O)O
148 to 150 | CCOCc1nc2c(N)nc3ccccc3c2n1NCCCNS(C)(=O)=O
215 | CCC1c2nc[nH]c2CCN1C(=S)NC(C)C (stereo not drawn)
175 to 177 | CCOC(=O)Cn1cc(Cl)cnc1=O
250 to 251 | O=C(O)c1cc(Br)cc2c1NCCS2(=O)=O
272 | CCOC(=O)C1=C(N)NC2=C(C(=O)CCC2)C1c1nccc2ccccc12 (stereo not drawn)
204 | CNC(=O)c1ccccc1Nc1nc(Nc2cccc3c2C(=O)N(C)CCN3C)ncc1Cl
84 to 85 | Cc1ncoc1C(C)(O)c1cccs1 (stereo not drawn)

melting point [°C] | Structure (SMILES)
124 | CCOC(=O)c1nn(-c2ccc(Cl)cc2Cl)c(-c2ccc(Cl)cc2)c1C
105 to 108 | COc1ccc(S(=O)(=O)c2ccc(OC)c(CC3CO3)c2)cc1CC1CO1 (stereo not drawn)
98 | COc1cc(OC)c([N+](=O)[O-])c(OC)c1NC=O
105 to 106 | COc1ccc(C(=O)CNc2ccccc2)cc1
194 to 196 | CN(C)S(=O)(=O)c1cc(-n2c(=O)cc(C(F)(F)F)n(C)c2=O)ccc1Cl
50 to 70 | CC(C)(C)SCc1c(-c2ccc(S(C)(=O)=O)cc2)cnn(-c2ccc(F)cc2)c1=O
70 to 90 | CCOCCNC1CCCCC1Cc1ccc(-c2cccc(N)n2)cc1 (stereo not drawn)
66 to 67 | CCCCCC(O)(c1cncnc1)C(C)(C)C (stereo not drawn)
128 to 130 | CCCCOc1ccc(NC(=O)c2cnc(C(=O)O)c(OC)c2)cc1
203 | O=C(O)CCCc1cc2cc(Cl)ccc2n1S(=O)(=O)c1ccc2c(c1)CCN2
157 | O=C(CSc1ncc(-c2ccccc2)cn1)NC1CCN(Cc2ccc(Cl)c(Cl)c2)CC1
200 to 202 | Cc1ccc(C2C(=O)CC(C)(C)CC2=O)cc1
121 to 123 | C=CC(C)C1CCC2C3CCC4=CC(O)CCC4(C)C3CCC12C (stereo not drawn)
130 to 132 | Cn1c(-c2ccc(N3CCOCC3)cc2)cnc1[C@H](Cc1ccccn1)N(C=O)c1cc2cc(F)ccc2o1
137 to 139 | CCOCc1nc2c(Cl)nc(C)c(C)c2n1NC1CCOCC1
120 to 122 | CC(C)(C)OC(=O)COC1=CC(=O)c2ccccc2C1=O
190 to 192 | C[C@H](Cn1ncnn1)n1nnc2cc3c(=O)n(C4CC4)nnc3cc2c1=O
